Patent US20130289089A1, “Pharmaceutical Compositions for Topical Delivery of Photosensitizers and Uses Thereof” (priority 2011, published 2013)

Columns and labels:
Format in all cases: physicochemical
[1] = Stability of supersaturated/reconstituted lemuteporfin solutions up to 4 hours (filtered, HPLC); details: up to 4 hours post-reconstitution
Procedure: Samples of the compositions are taken at various time points after combining the photosensitizing component and the excipient component. Half of the samples are filtered to remove any precipitates, for example through a 0.22 μm filter. The filtered solutions are analyzed, for example, using HPLC, for the content or concentration of photosensitizer. If the solution is stable, and no photosensitizer has precipitated out, then the concentration of photosensitizer in the filtered solution should be roughly the same as the concentration of photosensitizer in the unfiltered solution, within experimental error.
Three formulations (Batches C (Table 8), D (Table 9) and H (Table 10)) in which the Vial 1 photosensitizer component consisted of benzyl alcohol and lemuteporfin at three lemuteporfin concentrations, 0.1, 0.075 and 0.05% w/w in the final combined LTS solution were examined for stability after reconstitution with the remaining excipients in Vial 2.
Vial 2 contents were added to vial 1 for each formulation, mixed and sampled at time 0 and 4 hours after reconstitution. The samples were filtered through a 0.22 μm filter before analysis by HPLC. This analysis was performed to ensure that the combined product had adequate stability and would not precipitate before administration to a subject. […]

[2] = Solubility of lemuteporfin in various solvents (HPLC analysis)
Source text: The solubility of lemuteporfin in various solvent compositions is shown in the last column of Table 2. All values were obtained analytically by HPLC analysis.
Solubility results for lemuteporfin indicated maximum solubility in solvent-based formulations containing primarily benzyl alcohol. […] The addition of other solvents reduced solubility by approximately the amount of the new solvent introduced. Diethylene glycol monoethyl ether (DGME) is about 20% as efficient at dissolving lemuteporfin as benzyl alcohol.

[3] = Solubility of lemuteporfin in the LTS formulation (stirred, sampled, filtered)
Procedure: LTS was prepared by adding lemuteporfin to the other components in Table 4 (already pre-mixed) at room temperature. The solution was stirred and samples were removed at various time points, and filtered to determine the amount of undissolved lemuteporfin. The amount of lemuteporfin that dissolved was approximately 0.048%.
Studies were conducted to determine the effect of certain of the LTS excipients on the solubility of lemuteporfin.

In the case of lemuteporfin, the “Precipitation after reconstitution” value [1] was “has not precipitated out of solution”, the “Efficiency of DGME at dissolving lemuteporfin relative to benzyl alcohol” value ([2]; DGME versus benzyl alcohol) was “about 20%” and the “Solubility, % w/w Lemuteporfin” value ([2]; solvent % w/w: DGME 45, benzyl alcohol 45, oleyl alcohol 5, oleic acid 5) was 1.373 % w/w. For the same substance, the “Solubility, % w/w Lemuteporfin” value ([2]; solvent % w/w: DGME 50, benzyl alcohol 15, oleic acid 35) was 0.230 % w/w, the “Solubility, % w/w Lemuteporfin” value ([2]; solvent % w/w: DGME 50, benzyl alcohol 15, oleyl alcohol 35) was 0.200 % w/w and the “Solubility, % w/w Lemuteporfin” value ([2]; solvent % w/w: DGME 50, benzyl alcohol 50) was 1.57 % w/w. For the same substance, the “Solubility, % w/w Lemuteporfin” value ([2]; solvent % w/w: DGME 52, benzyl alcohol 16, oleyl alcohol 16, oleic acid 16) was 0.210 % w/w, the “Solubility, % w/w Lemuteporfin” value ([2]; solvent % w/w: DGME 65, oleyl alcohol 17.5, oleic acid 17.5) was 0.271 % w/w and the “Solubility, % w/w Lemuteporfin” value ([2]; solvent % w/w: DGME 65, oleyl alcohol 35) was 0.430 % w/w. The “Solubility, % w/w Lemuteporfin” value ([2]; solvent % w/w: DGME 90, isopropyl myristate 10) was 0.430 % w/w, the “Solubility, % w/w Lemuteporfin” value ([2]; solvent % w/w: DGME 90, oleyl alcohol 5, oleic acid 5) was 0.420 % w/w and the “Solubility, % w/w Lemuteporfin” value ([2]; solvent % w/w: DGME 90, oleyl alcohol 10) was 0.420 % w/w. For the same substance, the “Solubility, % w/w Lemuteporfin” value ([2]; solvent % w/w: benzyl alcohol 30, ethanol (190) 70) was 0.455 % w/w, the “Solubility, % w/w Lemuteporfin” value ([2]; solvent % w/w: benzyl alcohol 30, oleyl alcohol 70) was 0.166 % w/w and the “Solubility, % w/w Lemuteporfin” value ([2]; solvent % w/w: benzyl alcohol 40, isopropyl myristate 60) was 0.090 % w/w. For the same substance, the “Solubility, % w/w Lemuteporfin” value ([2]; solvent % w/w: benzyl alcohol 50, ethanol (190) 50) was 0.453 % w/w, the “Solubility, % w/w Lemuteporfin” value ([2]; solvent % w/w: benzyl alcohol 50, oleic acid 50) was 0.409 % w/w and the “Solubility, % w/w Lemuteporfin” value ([2]; solvent % w/w: benzyl alcohol 50, oleyl alcohol 50) was 0.228 % w/w. The “Solubility, % w/w Lemuteporfin” value ([2]; solvent % w/w: benzyl alcohol 50, propylene glycol 50) was 0.494 % w/w, the “Solubility, % w/w Lemuteporfin” value ([2]; solvent % w/w: benzyl alcohol 90, isopropyl myristate 10) was 2.30 % w/w and the “Solubility, % w/w Lemuteporfin” value ([2]; solvent % w/w: benzyl alcohol 90, oleic acid 10) was 2.33 % w/w. The “Solubility, % w/w Lemuteporfin” value ([2]; solvent % w/w: benzyl alcohol 90, oleyl alcohol 5, oleic acid 5) was 2.22 % w/w, the “Solubility, % w/w Lemuteporfin” value ([2]; solvent % w/w: benzyl alcohol 90, oleyl alcohol 10) was 2.24 % w/w and the “Solubility, % w/w Lemuteporfin” value ([2]; solvent: benzyl alcohol 100 % w/w) was 2.55 % w/w. For the same substance, the “Solubility of lemuteporfin in the LTS solution system” value (shortened to “Solubility of lemuteporfin”) ([3]; isopropyl alcohol removed (data not shown)) was roughly 0.07 % w/w, the “Amount of lemuteporfin that dissolved in the Table 4 components” value ([3]; room temperature) was “approximately 0.048%” and the “Lemuteporfin content (% w/w), dissolved in formulation of Table 4” value (from here on “Lemuteporfin content (% w/w), dissolved”) ([3]; room temperature, time point 0.17 hours) was 0.0241 % w/w. For the same substance, the “Lemuteporfin content (% w/w), dissolved” value ([3]; room temperature, time point 2.47 hours) was 0.0482 % w/w, the “Lemuteporfin content (% w/w), dissolved” value ([3]; room temperature, time point 4.37 hours) was 0.0453 % w/w and the “Lemuteporfin content (% w/w), dissolved” value ([3]; room temperature, time point 6.37 hours) was 0.0463 % w/w. The “Lemuteporfin content (% w/w), dissolved” value ([3]; room temperature, time point 23.5 hours) was 0.0370 % w/w, the “Solubility of lemuteporfin” value ([3]; with isopropyl alcohol (data not shown)) was “approximately 0.03 % w/w” and the “Solubility of lemuteporfin” value ([3]; with polysorbate 80 (data not shown)) was 0.037 % w/w. The “Solubility of lemuteporfin” value ([3]; without polysorbate 80 (data not shown)) was 0.027 % w/w.
